For assay [1], the target named is T1, IDO1 (Homo sapiens (Human), UniProt P14902). The experiment in a line: IDO1 Cellular Assay in Hela Cells Stimulated with IFNγ. The following applies: Hela cells stimulated with IFNγ 100 ng/mL; read-out: IDO1 HELA Cell Assay, IC50. It counts as cell-based.
In assay [2] the target is T1, IDO1. The experiment in a line: IDO1 Cellular Assay in Frozen HEK293 Cells Transiently Transfected with Human IDO1. The format is cell-based. The following applies: HEK293 cells transiently transfected with human IDO1; read-out: IDO1 HEK293 Cell Assay, IC50.
The target of assay [3] is T1, IDO1. The experiment in a line: IDO1 Enzyme Assay. The following applies: HIS-tagged recombinant IDO1, 40 nM.
Assay [4] has as its target T1, IDO1. The experiment in a line: IDO1 Human Whole Blood Assay. It counts as cell-based. The following applies: LPS and IFNγ 100 ng/mL, kynurenine by LC/MS/MS. As for the experimental part: IDO1 Human Whole Blood Assay
LPS and IFNγ was prepared in RPMI to a 10× of final conc. (1000 ng/mL), final concentration is 100 ng/mL.
Human whole blood was drawn in sodium heparin coated tubes from healthy internal donors. Two hundred fourty μL of blood was transferred to each of the wells of a v-bottom 96 well plate. Thirty μL of compound was transferred from intermediate dilution plate, and incubated for 15 min. […] from stimulants was then transferred to blood and mixed thoroughly. Plate was covered with breathable membrane and incubated at 37° C. for overnight (18 h).
On day 2 isotope labeled standard of kunurenine and tryptophan was made in water at 10× concentration and 30 μL was added to the blood at 3 μM final concentration. The assay plates were centrifuged at 300×G for 10 min with no brake to separate plasma from red blood cells. Sixty μL of plasma samples was removed without disturbing red blood cells. Plasma was diluted with RPMI in 1:1 ratio and proteins were precipitated out with two volume of Acetonitrile. The plates was centrifuged at 4000×G for 60 min. Twenty μL of supernatant was carefully transferred to a 384 well plate contain 40 μL of 0.1% formic acid in water and analysed by LC/MS/MS.
LC/MS/MS analyses were performed using Thermo Fisher's LX4-TSQ Quantum Ultra system. This system consists of four Agilent binary high-performance liquid chromatography (HPLC) pumps and a TSQ Quantum Ultra triple quadrupole MS/MS instrument. For each sample, 5 μL were injected onto an Atlantis T3 column column (2.1 mm×150 mm, 3 μm particle size) from Waters. The mobile phase gradient pumped at 0.8 mL/min was used to elute the analytes from the column at 25° C. The elution started at 0% B increasing linearly to 25% B at 6.5 min, holding at 25% for 1 min, re-equilibrating to 10 min. Mobile phase A consisted of 0.1% formic acid in water. Mobile phase B consisted of 0.1% of formic acid in acetonitrile. Data was acquired in positive mode using a HESI interface. The operational parameters for the TSQ Quantum Ultra instrument were a spray voltage of 4000 V, capillary temperature of 380° C., vaporizer temperature 400° C., shealth gas 60 arbitrary units, Aux gas 20 arbitrary units, tube lens 85 and collision gas 1.2 mTorr. SRM chromatograms of kynurenine (Q1: 209.2>Q3:94.0) and internal standard (Q1: 215.3>Q3:98.2) were collected for 90 sec. The peak area was integrated by Xcalibur Quan software. The ratios between the kynurenine generated in the reaction and 2D6-Kynurenine spiked-in internal standard were used to generate percentage inhibition and IC50 values. Compounds were titrated and IC50's were calculated by 4 parameter sigmoidal curve fitting formula.

Where [5] appears, read: read-out: IDO1 Enzyme Assay, IC50.

Consider five compounds from patent US10538497B2, “Compounds as indoleamine 2,3-dioxygenase inhibitors” (Merck Sharp & Dohme Corp., priority 2015, dated 2020).

SMILES strings stand for the structures.

T1 sequence (P14902 whole entry): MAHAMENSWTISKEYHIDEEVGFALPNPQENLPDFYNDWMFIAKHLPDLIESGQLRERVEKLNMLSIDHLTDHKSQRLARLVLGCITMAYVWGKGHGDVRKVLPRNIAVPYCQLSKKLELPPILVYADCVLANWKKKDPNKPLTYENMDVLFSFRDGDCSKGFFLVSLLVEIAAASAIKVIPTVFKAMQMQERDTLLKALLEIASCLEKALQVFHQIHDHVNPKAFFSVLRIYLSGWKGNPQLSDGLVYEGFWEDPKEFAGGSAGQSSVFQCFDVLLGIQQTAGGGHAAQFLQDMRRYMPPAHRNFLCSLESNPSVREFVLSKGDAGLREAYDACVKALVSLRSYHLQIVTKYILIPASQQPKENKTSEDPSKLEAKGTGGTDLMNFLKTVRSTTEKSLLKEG

`O=C(CSc1nonc1/C(=N/O)Nc1ccc(F)c(Br)c1)NC[C@H](O)CO` [Example 175, 2-({4-[N-(3-bromo-4-fluorophenyl)-N′-hydroxycarbamimidoyl]-1,2,5-oxadiaxol-3-yl}sulfanyl)-N-[(2S)-2,3-dihydroxypropyl]acetamide]: the IC50 was 223 nM on IDO1 [1], 281 nM on IDO1 [2], 125 nM on IDO1 [3] (setting [5]) and 1720 nM on IDO1 [4].
With `CC(C)(O)C(O)CSc1nonc1/C(=N/O)Nc1ccc(F)c(Br)c1` (centres unmarked) [Example 29, N-(3-bromo-4-fluorophenyl)-4-((2,3-dihydroxy-3-methylbutyl)thio)-N′-hydroxy-1,2,5-oxadiazole-3-carboximidamide], the IC50 on IDO1 [1] is 61 nM; on IDO1 [2], 23.6 nM; at IDO1 [3] (IDO1 Enzyme Assay, IC50, nM), 81.3 nM; at IDO1 [4], 784 nM.
For `O=C(CSc1nonc1/C(=N/O)Nc1ccc(F)c(Br)c1)NC(CO)CO` [Example 145, 2-({4-[N-(3-bromo-4-fluorophenyl)-N′-hydroxycarbamimidoyl]-1,2,5-oxadiazol-3-yl}sulfanyl)-N-[2-hydroxy-1-(hydroxymethyl)ethyl]acetamide], the IC50 came out at 68 nM at IDO1 [1], 77.1 nM at IDO1 [2], 50.9 nM at IDO1 [3] (setting [5]) and 1270 nM against IDO1 [4].
The corresponding values for `OC[C@@H](O)CSc1nonc1/C(=N/O)Nc1ccc(F)c(Cl)c1` [Example 169, N-(3-chloro-4-fluorophenyl)-4-{[(2R)-2,3-dihydroxypropyl]sulfanyl}-N′-hydroxy-1,2,5-oxadiazole-3-carboximidamide] are 191 nM, 93.7 nM, 52.8 nM and 1290 nM.
For `N#Cc1cc(N/C(=N\O)c2nonc2SCCNS(N)(=O)=O)ccc1F` [Example 181, N-(3-cyano-4-fluorophenyl)-N′-hydroxy-4-{[2-(sulfamoylamino)ethyl]sulfanyl}-1,2,5-oxadiazole-3-carboximidamide], the IC50 at IDO1 [1] turned out to be 261 nM; on IDO1 [2], 136 nM; on IDO1 [3] (setting [5]), 119 nM; against IDO1 [4], 3240 nM.
